# According to PubChem BioAssay AID588712 (The Scripps Research Institute Molecular Screening Center, 2011):
# Values joined by “and” are separate entries in the source; they are usually repeats but may differ in a detail not shown here. Identical values can stand only once. Active and inactive are the calls of the source. The rule behind the calls is not given here.
# Target: Insulin-degrading enzyme (Homo sapiens) (UniProt P14735)
# Experiment: IDE inhibition in live cells – cell-based, fluorescence polarization, late-stage follow-up (AID 588712)
# Details: cell-based IDE activity
# Chain of Insulin-degrading enzyme (Homo sapiens) (P14735 whole entry, looked up): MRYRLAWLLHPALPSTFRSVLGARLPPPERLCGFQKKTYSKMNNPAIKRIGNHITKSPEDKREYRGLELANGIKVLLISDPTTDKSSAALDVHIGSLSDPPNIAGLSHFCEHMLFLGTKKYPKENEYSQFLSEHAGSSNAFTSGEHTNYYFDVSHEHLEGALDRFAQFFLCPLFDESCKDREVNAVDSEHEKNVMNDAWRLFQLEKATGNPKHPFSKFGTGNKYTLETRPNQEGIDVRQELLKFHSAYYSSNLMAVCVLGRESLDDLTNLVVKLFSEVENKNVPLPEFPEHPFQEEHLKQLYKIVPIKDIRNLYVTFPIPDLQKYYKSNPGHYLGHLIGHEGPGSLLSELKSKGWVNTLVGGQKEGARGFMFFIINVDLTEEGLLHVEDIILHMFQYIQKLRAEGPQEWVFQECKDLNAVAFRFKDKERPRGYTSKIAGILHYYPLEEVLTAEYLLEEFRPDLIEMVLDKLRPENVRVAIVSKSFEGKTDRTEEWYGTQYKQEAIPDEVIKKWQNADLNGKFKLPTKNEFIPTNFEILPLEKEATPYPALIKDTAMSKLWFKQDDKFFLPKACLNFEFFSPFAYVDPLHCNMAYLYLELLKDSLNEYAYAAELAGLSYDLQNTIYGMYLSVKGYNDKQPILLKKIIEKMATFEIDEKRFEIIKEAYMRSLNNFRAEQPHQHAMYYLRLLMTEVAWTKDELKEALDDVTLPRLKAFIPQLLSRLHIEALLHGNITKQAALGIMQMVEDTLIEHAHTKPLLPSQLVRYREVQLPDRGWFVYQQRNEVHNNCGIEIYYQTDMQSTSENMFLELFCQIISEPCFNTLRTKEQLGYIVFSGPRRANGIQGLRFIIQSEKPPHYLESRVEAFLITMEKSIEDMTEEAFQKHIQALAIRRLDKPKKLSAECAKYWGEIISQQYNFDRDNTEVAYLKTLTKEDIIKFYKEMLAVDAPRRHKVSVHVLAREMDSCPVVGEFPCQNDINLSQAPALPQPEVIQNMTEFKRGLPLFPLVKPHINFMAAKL
row,IC50,SMILES
1,5.74 µM,O=C(Nc1cccc(C(F)(F)F)c1)c1csc(-c2ccncc2)n1
2,inactive,CCN(CC)c1ccc(/C=C2\C(=N)N3N=C(CC(=O)N4CCOCC4)SC3=NC2=O)cc1
3,> 54.7 µM (inactive),Cc1ccc(C)c(N2C(=N)S/C(=C\c3ccc(-c4ccccc4C(=O)O)o3)C2=O)c1
4,> 54.7 µM (inactive),O=C(CSc1nnc(-c2cccc(Cl)c2)n1Cc1ccco1)Nc1ccc2c(c1)OCCO2
5,> 54.7 µM (inactive),O=C(Nc1cccc(C(F)(F)F)c1)c1csc(-c2ccccc2)n1
6,> 54.7 µM (inactive),O=C(C1CC1)N1CCN(c2ccnc3cc(Cl)ccc23)CC1
7,> 54.7 µM (inactive),COc1ccc(NC(=O)CSc2nnc(CN3CCOCC3)n2C)cc1Cl
8,9.21 µM and 8.91 µM,Cc1cccc(-c2nnc(SCc3nc4ccccc4[nH]3)n2Cc2ccco2)c1
9,inactive,CCOc1ccc2[nH]c3c(N4CCN(C(=O)c5ccco5)CC4)ncnc3c2c1
10,> 54.7 µM (inactive),CC(Sc1nnc(-c2cccnc2)n1-c1ccccc1F)C(=O)N1CCCc2ccccc21 (stereo unspecified)
11,> 54.7 µM (inactive),Clc1cccc(-c2nnc(SCc3nc4ccccc4[nH]3)n2-c2ccccc2)c1
12,> 54.7 µM (inactive),Cn1c(SCc2nc3ccccc3[nH]2)nnc1-c1cccc(Cl)c1
13,> 54.7 µM (inactive),Cc1ccc(NC(=O)CSc2nnc(-c3cccc(Cl)c3)n2Cc2ccco2)c(C)c1
14,> 54.7 µM (inactive),Cc1ccc(-c2nc(C(=O)Nc3cccc(C(F)(F)F)c3)cs2)cc1
15,> 54.7 µM (inactive),O=C(Nc1ccc2oc(-c3cccnc3)nc2c1)c1ccc2c(c1)OCCO2
16,> 54.7 µM (inactive),O=C(CSc1nnc(-c2cccc(Cl)c2)n1Cc1ccco1)Nc1ccc2cn[nH]c2c1

row,IC50,SMILES
1,7.32 µM,Cc1c(CCC(=O)NCCCn2ccnc2)c(=O)oc2cc3oc4c(c3cc12)CCCC4
2,> 54.7 µM (inactive),O=C(CSc1nnc(-c2cccc(Cl)c2)n1Cc1ccco1)c1ccc2ccccc2c1
3,> 54.7 µM (inactive),Cc1nc(-c2cccnc2)sc1C(=O)Nc1cccc(C(F)(F)F)c1
4,2.17 µM,O=c1c2ccccc2sn1-c1cc(S(=O)(=O)N2CCOCC2)ccc1N1CCOCC1
5,> 54.7 µM (inactive),COc1ccc(C(=O)N2CCN(C(=O)C3COc4ccccc4O3)CC2)cc1OC (stereo unspecified)
6,> 54.7 µM (inactive),Cn1c(=O)c(C(=O)CN2CCCc3ccccc32)c(N)n(Cc2ccccc2)c1=O
7,> 54.7 µM (inactive),COc1ccc(-c2nc(C(=O)Nc3cccc(C(F)(F)F)c3)cs2)cc1
8,> 54.7 µM (inactive),Nc1c(C(=O)Nc2nccs2)sc2nc(-c3cccs3)cc(C(F)(F)F)c12
9,9.38 µM,COc1cccc(-c2nnc(SCc3nc4ccccc4[nH]3)n2Cc2ccco2)c1
10,> 54.7 µM (inactive),O=C(CSc1nnc(-c2cccc(Cl)c2)n1Cc1ccco1)Nc1ccccc1C(F)(F)F
11,3.09 µM,Clc1cccc(-c2nnc(SCc3nc4ccccc4[nH]3)n2Cc2ccco2)c1
12,inactive,COc1cc(/C=C2\SC(=S)N(NC(C)=O)C2=O)ccc1OC(=O)c1ccco1
13,> 54.7 µM (inactive),O=C(Nc1cccc(C(F)(F)F)c1)c1csc(-c2cccc(C(F)(F)F)c2)n1
14,> 54.7 µM (inactive),O=C(Nc1cccc(C(F)(F)F)c1)c1csc(Cc2cccc(C(F)(F)F)c2)n1
15,> 54.7 µM (inactive),O=C(Nc1cc(C(F)(F)F)cc(C(F)(F)F)c1)c1csc(-c2ccncc2)n1
